Data set [1] deals with T1, recombinant human protein tyrosine phosphatase 1B (Homo sapiens, UniProt P18031).
T1 construct: purchased UBI
T1 sequence (P18031 1-435): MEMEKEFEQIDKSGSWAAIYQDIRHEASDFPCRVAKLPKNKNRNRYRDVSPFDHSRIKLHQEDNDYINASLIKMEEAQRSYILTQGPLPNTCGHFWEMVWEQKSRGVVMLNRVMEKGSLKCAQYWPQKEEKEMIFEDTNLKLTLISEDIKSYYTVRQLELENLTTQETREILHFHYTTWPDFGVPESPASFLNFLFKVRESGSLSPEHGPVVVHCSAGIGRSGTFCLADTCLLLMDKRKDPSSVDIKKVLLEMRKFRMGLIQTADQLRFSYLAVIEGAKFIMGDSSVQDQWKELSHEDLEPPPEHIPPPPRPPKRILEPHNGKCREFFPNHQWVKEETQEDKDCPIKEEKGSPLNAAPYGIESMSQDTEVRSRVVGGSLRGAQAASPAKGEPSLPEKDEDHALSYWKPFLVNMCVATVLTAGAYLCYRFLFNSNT
The data set can be described thus: Protein tyrosine phosphatase 1B inhibitory action (malachite green, phosphorylated insulin receptor peptide substrate). The format is biochemical. To be noted: recombinant human PTP1B, 60 min room temperature, absorbance at 650 nm. How it is done:
Preparation of Assay Buffer:
50 mM Tris-HCl buffer (pH 7.5), and 50 mM NaCl and 3 mM dithiothreitol (DTT) were prepared.
Respective 10 mM DMSO solutions of 0.1, 0.3, 1, 3 and 10 μM test compounds were diluted with the above-mentioned assay buffer so that the final dimethyl sulfoxide (DMSO) concentration would be not more than 1%. As a control, an assay buffer was used.
Preparation of Substrate:
A synthetic peptide consisting of 12 amino acids corresponding to 1142nd–1153rd of insulin receptor sequence, wherein three tyrosines therein had been phosphorylated, was diluted with the above-mentioned assay buffer to 80 μM.
A recombinant human protein tyrosine phosphatase 1B (manufactured by UBI) was diluted with the above-mentioned assay buffer (1.2 ng/25 μl).
A sample (10 μl) and a substrate (25 μl) prepared as mentioned above were successively added to a 96 well plate, and an enzyme (25 μl) prepared as mentioned above was added and mixed. After incubation at room temperature for 60 min., malachite green (120 μl, Biomol), which is a phosphorus color fixing agent, was added, and the mixture was further incubated at room temperature for 20 min. to allow color development. The absorbance at 650 nm was measured on a plate reader, and the protein tyrosine phosphatase 1B inhibitory action of the test compound was evaluated.

In a further data set the test system is male ob/ob mice. Description: Hypoglycemic action in ob/ob mice, oral administration. To be noted: Mus musculus, fasting, 3 hr after administration, relative to control group, read-out: Decrease in blood glucose level (%) 3 hr; for inhibition in vivo at 3 mg/kg: dose 3 mg/kg oral; for inhibition in vivo at 0.3 mg/kg: dose 0.3 mg/kg oral; for inhibition in vivo at 1 mg/kg: dose 1 mg/kg oral. The format is in vivo. The protocol: A 0.5% methyl cellulose suspension of the test compound was orally administered to male ob/ob mice (6 to 9 weeks old) grouped based on blood glucose level. A 0.5% methyl cellulose solution alone was administered to a control group.
The blood was drawn from the orbital vein with anesthesia at 3 hours after the administration. The blood was drawn under fasting by removing the feed immediately before test compound administration. The blood thus drawn was separated by centrifugation and the blood glucose level was measured from the obtained plasma according to the hexokinase method (glucose measure kit). For evaluation, decrease in the blood glucose level of the test compound administration group relative to the control group was shown in percentage.

Another data set concerns db/db mice. Description: Blood lipid lowering action in db/db mice, oral administration once a day for 14 days. The format is in vivo. To be noted: non-fasting; for Plasma triglyceride concentration (mg/dL) Day 7: Day 7 (control group 508); for Plasma triglyceride concentration (mg/dL) Day 14: Day 14 (control group 622). The protocol: A 0.5% methyl cellulose suspension of the test compound was orally administered to 7-week-old db/db mice once a day for 14 days. The 0.5% methyl cellulose solution alone was administered to the control group.
The blood was drawn from the orbital vein with light ether anesthesia before test compound administration on day 7 day 14 under non-fasting condition. The blood thus drawn was separated by centrifugation and the plasma triglyceride concentration was measured from the obtained plasma according to the enzyme method (triglyceride measure kit).

Usually IC50 stands for the midpoint of a concentration-inhibition curve. As a reminder, the melting point is the temperature of the solid-liquid transition. The compound `CCCC(CCC)c1ccc(CN(C)c2ccc(-c3csc(N(C)Cc4ccc(C(=O)O)cc4)n3)cc2)cc1` [Example 230, 4-((N-methyl-N-(4-(4-(N-methyl-N-(4-(1-propylbutyl)benzyl)amino)phenyl)-2-thiazolyl)amino)methyl)benzoic acid] displayed a melting point of 114 to 115 °C. Moreover, in data set [1], the IC50 was 0.15 µM. Moreover, in the data set with male ob/ob mice, the inhibition in vivo at 3 mg/kg amounted to 40%.
The like results for `CN(Cc1ccc([C@H]2CC[C@H](O)CC2)cc1)c1ccc(-c2csc(N(C)Cc3ccc(C(=O)O)cc3)n2)cc1` [Example 196, trans-4-((N-(4-(4-(N-(4-(4-hydroxycyclohexyl)benzyl)-N-methylamino)phenyl)-2-thiazolyl)-N-methylamino)methyl)benzoic acid] were, in that order, 194 to 196 °C, 0.83 µM and -8%.
The like results for `CN(Cc1ccc(C(=O)O)cc1)c1nc(-c2ccc(NCc3ccc(C4CCCCC4)cc3)cc2)cs1` [Example 115, 4-((N-(4-(4-(4-cyclohexylbenzylamino)phenyl)-2-thiazolyl)-N-methylamino)methyl)benzoic acid] were, in that order, 184 °C (dec.), 0.48 µM and 34%.
The compound `CN(Cc1ccc(C2CCC(C)(C)CC2)cc1)c1ccc(-c2csc(N(C)Cc3ccc(C(=O)O)cc3)n2)cc1` [Example 215, 4-((N-(4-(4-(N-(4-(4,4-dimethylcyclohexyl)benzyl)-N-methylamino)phenyl)-2-thiazolyl)-N-methylamino)methyl)benzoic acid] returned a melting point of 155 to 158 °C. For the same compound, in data set [1], the IC50 was found to be 0.11 µM. In the data set on male ob/ob mice, the inhibition in vivo at 0.3 mg/kg is -9%, the inhibition in vivo at 1 mg/kg came to 32% and the inhibition in vivo at 3 mg/kg was 39%.
Regarding `O=C(O)c1ccc(CN(CC2CCCCC2)c2nc(-c3nc4ccc(OCc5ccc(Cl)c(Cl)c5)cc4o3)cs2)cc1` [Example 217, 4-((N-cyclohexylmethyl-N-(4-(6-(3,4-dichlorobenzyloxy)-2-benzooxazolyl)-2-thiazolyl)amino)methyl)benzoic acid], the melting point fell in the range of 188 to 190 °C. Besides, the IC50 in data set [1] turned out to be 0.26 µM. For the same compound, in the data set with male ob/ob mice, the inhibition in vivo at 3 mg/kg was determined as 20%.
The like results for `CN(Cc1ccc(C2CCC(F)(F)CC2)cc1)c1ccc(-c2csc(N(C)Cc3ccc(C(=O)O)cc3)n2)cc1` [Example 209, 4-((N-(4-(4-(N-(4-(4,4-difluorocyclohexyl)benzyl)-N-methylamino)phenyl)-2-thiazolyl)-N-methylamino)methyl)benzoic acid] were, in that order, 190 to 193 °C, 0.49 µM and 20%.
Consider `CC1CCC(c2ccc(CN(C)c3ccc(-c4csc(N(C)Cc5ccc(C(=O)O)cc5)n4)cc3)cc2)CC1` (centres unmarked) [Example 218, 4-((N-methyl-N-(4-(4-(N-methyl-N-(4-(4-methylcyclohexyl)benzyl)amino)phenyl)-2-thiazolyl)amino)methyl)benzoic acid], for which the melting point lay within 185 to 191 °C. Besides, the IC50 in data set [1] came to 0.15 µM. In the data set with male ob/ob mice, the inhibition in vivo at 3 mg/kg was 27%.
Compound `CN(Cc1ccc(C2CCC(Cl)(Cl)CC2)cc1)c1ccc(-c2csc(N(C)Cc3ccc(C(=O)O)cc3)n2)cc1` [Example 208, 4-((N-(4-(4-(N-(4-(4,4-dichlorocyclohexyl)benzyl)-N-methylamino)phenyl)-2-thiazolyl)-N-methylamino)methyl)benzoic acid] registered a melting point of 210 to 213 °C. The IC50 in data set [1] worked out at 0.11 µM. Also, the inhibition in vivo at 3 mg/kg in the data set with male ob/ob mice turned out to be 21%.
For the compound `CN(Cc1ccc(C2CCCCC2)cc1)c1ccc(-c2csc(N(C)Cc3ccc(C(=O)O)cc3)n2)cc1` [Example 1, 4-(N-(4-(4-(N-(4-cyclohexylbenzyl)-N-methylamino)phenyl)-2-thiazolyl)-N-methylaminomethyl)benzoic acid], the IC50 in data set [1] came out at 0.32 µM. Moreover, in the data set on male ob/ob mice, the inhibition in vivo at 0.3 mg/kg is 35%, the inhibition in vivo at 1 mg/kg is 35% and the inhibition in vivo at 3 mg/kg is 35%.
Consider `CN(Cc1ccc(C2CCCCC2)cc1)c1ccc(-c2csc(N(C)Cc3ccc(C(=O)[O-])cc3)n2)cc1.[Na+]` [Example 102, sodium 4-(N-(4-(4-(N-(4-cyclohexylbenzyl)-N-methylamino)phenyl)-2-thiazolyl)-N-methylaminomethyl)benzoate], for which the melting point stood at 240 °C. Further, in the data set on db/db mice (dose 10 mg/kg oral once a day), the “Plasma triglyceride concentration (mg/dL) Day 7” value is 277 mg/dL and the “Plasma triglyceride concentration (mg/dL) Day 14” value was 349 mg/dL. In the data set on db/db mice (dose 30 mg/kg oral once a day), the “Plasma triglyceride concentration (mg/dL) Day 7” value was determined as 250 mg/dL and the “Plasma triglyceride concentration (mg/dL) Day 14” value is 307 mg/dL.

(Values after patent US7163952B2, “Azole compound and medicinal use thereof” (Japan Tobacco Inc., priority 2001, dated 2007).)
